In article PMC7364574 (ACS Omega, 2020):

How the values were obtained:
[1] = target: c-Met kinase (Homo sapiens, UniProt P08581); experiment: c-Met tyrosine kinase mobility shift assay; type: biochemical; settings: IC50 (μM) c-Met
[2] = test system: A549 cells; experiment: Acridine orange; type: cell-based; settings: A549, 0.50 μM, 8 h
[3] = test system: A549 cells; experiment: Apoptosis analysis by flow cytometry; type: cell-based; settings: 24 h, control 5.16%
[4] = test system: A549 cells; experiment: Cell cycle distribution analysis by flow cytometry; type: cell-based; settings: 24 h, control 56.06%

Sequence of c-Met kinase (P08581 25-1390): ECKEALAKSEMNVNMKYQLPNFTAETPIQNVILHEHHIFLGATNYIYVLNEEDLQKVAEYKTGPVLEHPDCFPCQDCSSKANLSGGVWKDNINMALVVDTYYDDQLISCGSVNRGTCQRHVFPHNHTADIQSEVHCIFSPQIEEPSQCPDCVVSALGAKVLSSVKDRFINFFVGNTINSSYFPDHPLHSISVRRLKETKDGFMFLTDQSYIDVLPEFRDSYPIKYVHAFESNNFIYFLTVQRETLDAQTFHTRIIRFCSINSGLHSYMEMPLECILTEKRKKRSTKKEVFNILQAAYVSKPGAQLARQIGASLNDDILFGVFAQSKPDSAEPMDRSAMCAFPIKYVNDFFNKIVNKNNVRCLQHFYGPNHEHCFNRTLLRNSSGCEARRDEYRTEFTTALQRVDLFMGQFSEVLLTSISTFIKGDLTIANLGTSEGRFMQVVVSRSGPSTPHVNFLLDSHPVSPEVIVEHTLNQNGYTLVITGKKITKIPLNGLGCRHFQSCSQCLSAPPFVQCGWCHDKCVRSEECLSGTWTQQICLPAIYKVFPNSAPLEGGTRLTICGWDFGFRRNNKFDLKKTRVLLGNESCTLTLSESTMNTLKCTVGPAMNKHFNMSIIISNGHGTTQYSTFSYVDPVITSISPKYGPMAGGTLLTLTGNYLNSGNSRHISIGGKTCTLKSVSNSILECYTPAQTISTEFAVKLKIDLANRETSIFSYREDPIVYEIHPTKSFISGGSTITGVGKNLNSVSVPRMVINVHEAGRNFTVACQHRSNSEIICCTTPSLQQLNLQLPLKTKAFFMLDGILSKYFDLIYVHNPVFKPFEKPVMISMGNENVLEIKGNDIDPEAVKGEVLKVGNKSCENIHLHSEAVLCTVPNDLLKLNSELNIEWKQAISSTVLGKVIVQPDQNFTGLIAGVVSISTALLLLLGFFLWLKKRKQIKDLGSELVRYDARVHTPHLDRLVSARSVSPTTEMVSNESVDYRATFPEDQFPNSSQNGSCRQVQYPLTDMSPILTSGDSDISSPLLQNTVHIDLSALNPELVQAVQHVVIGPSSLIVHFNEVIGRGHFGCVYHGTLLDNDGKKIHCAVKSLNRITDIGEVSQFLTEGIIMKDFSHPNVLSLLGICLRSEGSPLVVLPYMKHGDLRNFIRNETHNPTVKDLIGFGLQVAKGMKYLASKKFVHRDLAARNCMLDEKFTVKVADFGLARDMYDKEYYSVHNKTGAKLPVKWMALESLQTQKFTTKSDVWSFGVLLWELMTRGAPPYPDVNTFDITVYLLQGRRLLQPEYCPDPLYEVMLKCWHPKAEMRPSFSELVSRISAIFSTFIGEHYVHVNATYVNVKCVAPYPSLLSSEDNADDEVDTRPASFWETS

Row | SMILES | IC50 [1] [µM] | induction of apoptosis, AO staining [2] | total apoptosis rate ([3]; A549, 3.75 μM) [%] | total apoptosis rate ([3]; A549, 7.50 μM) [%] | total apoptosis rate ([3]; A549, 15.00 μM) [%] | G0/G1 phase population ([4]; A549, 3.75 μM) [%] | G0/G1 phase population ([4]; A549, 7.50 μM) [%] | G0/G1 phase population ([4]; A549, 15.00 μM) [%]
1 | Cc1cc(Oc2ccc(NC(=O)c3cnn(-c4ccc(Cl)cc4)c3C(F)(F)F)cc2F)c2nncn2n1 [13b, 1-(4-Chlorophenyl)-N-(3-fluoro-4-((6-methyl-[1,2,4]triazolo[4,3-b]pyridazin-8-yl)oxy)phenyl)-5-(trifluoromethyl)-1H-pyrazole-4-carboxamide] | 0.09 to 0.21 | – | – | – | – | – | – | –
2 | Cc1cc(Oc2ccc(NC(=O)c3sc(-c4ccccn4)nc3C)cc2)c2nncn2n1 [12e, 4-Methyl-N-(4-((6-methyl-[1,2,4]triazolo[4,3-b]pyridazin-8-yl)oxy)phenyl)-2-(pyridin-2-yl)thiazole-5-carboxamide] | 0.09 to 0.21 | significant effect on inducing apoptosis | 13.73 | 24.87 | 35.87 | 60.25 | 66.32 | 76.84
